Drawing on PubChem BioAssay AID330 (DTP/NCI, 2004), this text covers T/C for 23 compounds.

The test deals with P388 leukemia ip, CD2F1 mice, survival T/C. Nature of the test: NCI In Vivo Anticancer Drug Screen. Data for tumor model P388 Leukemia (intraperitoneal) in CD2F1 (CDF1) mice. The note with it: endpoint: median survival time, higher = longer survival. In a few lines:
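Mice carrying the transplanted tumor received test compound or vehicle. Survival was recorded in each group, and the value is the treated-group measurement divided by that of the vehicle-treated control group.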

[1] abbreviates: dose: 60.0 mg/kg/injection, schedule: Q01DX005 (ip), vehicle: saline with Tween-80.
Setting [2] is: dose: 120.0 mg/kg/injection, schedule: Q01DX005 (ip), vehicle: saline with Tween-80.
Where [3] appears, read: dose: 240.0 mg/kg/injection, schedule: Q01DX005 (ip), vehicle: saline with Tween-80.
The mark [4] stands for this setting: dose: 50.0 mg/kg/injection, schedule: Q01DX009 (ip), vehicle: saline.
Setting [5] is: dose: 100.0 mg/kg/injection, schedule: Q01DX009 (ip), vehicle: saline.
Setting [6] is: dose: 200.0 mg/kg/injection, schedule: Q01DX009 (ip), vehicle: saline.
Where [7] appears, read: dose: 400.0 mg/kg/injection, schedule: Q01DX009 (ip), vehicle: saline.
Setting [8] is: dose: 12.5 mg/kg/injection, schedule: Q01DX009 (ip), vehicle: Klucel (hydroxypropylcellulose) (HPC).
Setting [9] is: dose: 25.0 mg/kg/injection, schedule: Q01DX009 (ip), vehicle: Klucel (hydroxypropylcellulose) (HPC).
Setting [10] is: dose: 50.0 mg/kg/injection, schedule: Q01DX009 (ip), vehicle: Klucel (hydroxypropylcellulose) (HPC).
Setting [11] is: dose: 50.0 mg/kg/injection, schedule: Q01DX009 (ip), vehicle: saline with Tween-80.
[12] abbreviates: dose: 60.0 mg/kg/injection, schedule: Q01DX005 (ip), vehicle: saline.
[13] abbreviates: dose: 120.0 mg/kg/injection, schedule: Q01DX005 (ip), vehicle: saline.
Setting [14] is: dose: 50.0 mg/kg/injection, schedule: Q01DX009 (ip), vehicle: saline sonified.

Several values for one entry are separate records, joined by “and”; a condition that tells them apart may be missing. Equal entries are not always repeated. Toxic doses and inconclusive results are not listed.

Turning to `CCOC(=O)CCCCCO[Si](c1ccccc1)(c1ccccc1)C(C)(C)C`, the T/C under setting [1] was 110 % of control, the T/C under setting [2] was 99 % of control and the T/C under setting [3] is 88 % of control.

In the case of `COc1ccc(C2c3cc4c(cc3OC3(O)CCCC(=O)C23)OCO4)cc1` (stereo not drawn), the T/C is, setting by setting: under setting [1], 100 % of control; under setting [2], 100 % of control; under setting [3], 93 % of control.

Regarding `Nn1cnnc1N/N=C\c1ccc(N(CCCl)CCCl)cc1`, the T/C was 121 % of control and 122 % of control (dose: 12.5 mg/kg/injection, schedule: Q01DX009 (ip), vehicle: saline); 174 % of control and 188 % of control under setting [4]; 195 % of control and 209 % of control under setting [5].

On to `OCCO`, for which the T/C by setting is: under setting [5], 86 % of control and 90 % of control; under setting [6], 100 % of control and 86 % of control; under setting [7], 104 % of control and 100 % of control; (dose: 0.5 % in 0.5 ml injection vol, schedule: Q01DX009 (ip), vehicle: water) 98 % of control; (dose: 1.0 % in 0.5 ml injection vol, schedule: Q01DX009 (ip), vehicle: water) 99 % of control and 107 % of control; (dose: 2.0 % in 0.5 ml injection vol, schedule: Q01DX009 (ip), vehicle: water) 100 % of control and 102 % of control. For the same compound, the T/C (dose: 2.5 % in 0.5 ml injection vol, schedule: Q01DX009 (ip), vehicle: water) was 106 % of control; the T/C (dose: 4.0 % in 0.5 ml injection vol, schedule: Q01DX009 (ip), vehicle: water) is 94 % of control; the T/C (dose: 5.0 % in 0.5 ml injection vol, schedule: Q01DX009 (ip), vehicle: water) is 105 % of control; the T/C (dose: 10.0 % in 0.5 ml injection vol, schedule: Q01DX009 (ip), vehicle: water) is 103 % of control; the T/C (dose: 20.0 % in 0.5 ml injection vol, schedule: Q01DX009 (ip), vehicle: water) was 108 % of control; the T/C (dose: 40.0 % in 0.5 ml injection vol, schedule: Q01DX009 (ip), vehicle: water) was 100 % of control. The T/C was 107 % of control (dose: 50.0 % in 0.5 ml injection vol, schedule: Q01DX009 (ip), vehicle: water) and 100 % of control (dose: 80.0 % in 0.5 ml injection vol, schedule: Q01DX009 (ip), vehicle: water).

With `Cc1ccc(CCN2CSC(=S)N(CCc3ccc(C)cc3)C2)cc1`, the T/C reads like this: under setting [8], 101 % of control; under setting [9], 96 % of control; under setting [10], 100 % of control; (dose: 50.0 mg/kg/injection, schedule: Q01DX009 (ip), vehicle: other) 96 % of control.

Take `CC(C)=CBr`: the T/C by setting is: under setting [4], 105 % of control; under setting [5], 105 % of control; under setting [6], 110 % of control.

`O=C1C=CC=C2C(=O)C(c3ccccc3)(c3ccccc3)[N+]([O-])=C12`: the T/C (dose: 50.0 mg/kg/injection, schedule: Q04DX002 (ip), vehicle: saline) was 100 % of control; the T/C (dose: 100.0 mg/kg/injection, schedule: Q04DX002 (ip), vehicle: saline) was 98 % of control; the T/C (dose: 200.0 mg/kg/injection, schedule: Q04DX002 (ip), vehicle: saline) is 111 % of control.

For `C[N+](C)([O-])CC1CC=CCC1C[N+](C)(C)[O-]` (stereo not drawn), the T/C (dose: 25.0 mg/kg/injection, schedule: Q01DX005 (ip), vehicle: saline) is 99 % of control; the T/C (dose: 50.0 mg/kg/injection, schedule: Q01DX005 (ip), vehicle: saline) was 106 % of control; the T/C (dose: 100.0 mg/kg/injection, schedule: Q01DX005 (ip), vehicle: saline) was 91 % of control.

`CC(=O)Nc1nc(N)nc2c1CC(N(Cc1ccc(Cl)cc1)C(C)=O)CC2` (stereo not drawn): the T/C was 108 % of control under setting [11]; 119 % of control (dose: 100.0 mg/kg/injection, schedule: Q01DX009 (ip), vehicle: saline with Tween-80); 154 % of control (dose: 200.0 mg/kg/injection, schedule: Q01DX009 (ip), vehicle: saline with Tween-80).

As for `CN(C)c1ccc2nc3ccc(=N)cc-3sc2c1`, the T/C by setting is: under setting [12], 114 % of control; under setting [13], 118 % of control.

As to `Nc1ccn(COC(COCc2ccccc2)COCc2ccccc2)c(=O)n1`, the T/C by setting is: under setting [1], 105 % of control; under setting [2], 96 % of control; under setting [3], 110 % of control.

On to `CCOC(=O)c1cc(N(CCCl)CCCl)ccc1OC(=O)CC`, for which the T/C runs as follows: (dose: 50.0 mg/kg/injection, schedule: Q04DX003 (ip), vehicle: Klucel (hydroxypropylcellulose) (HPC)) 100 % of control; (dose: 100.0 mg/kg/injection, schedule: Q04DX003 (ip), vehicle: Klucel (hydroxypropylcellulose) (HPC)) 100 % of control; (dose: 200.0 mg/kg/injection, schedule: Q04DX003 (ip), vehicle: Klucel (hydroxypropylcellulose) (HPC)) 97 % of control.

As to `Cc1ccc(CCNC(=O)c2c3nc4c(C(=O)NCCc5ccc(C)cc5)ccc(Br)c4oc-3c(Br)c(=O)c2N)cc1`, the T/C (dose: 50.0 mg/kg/injection, schedule: Q01DX005 (ip), vehicle: saline with Tween-80) is 93 % of control; the T/C (dose: 100.0 mg/kg/injection, schedule: Q01DX005 (ip), vehicle: saline with Tween-80) is 86 % of control; the T/C (dose: 200.0 mg/kg/injection, schedule: Q01DX005 (ip), vehicle: saline with Tween-80) was 106 % of control.

Consider `COC(=O)c1ccc(SCCCN2CCOCC2)cc1`, for which the T/C runs as follows: under setting [5], 91 % of control; (dose: 176.0 mg/kg/injection, schedule: Q04DX003 (ip), vehicle: saline) 90 % of control; under setting [6], 91 % of control; (dose: 264.0 mg/kg/injection, schedule: Q04DX003 (ip), vehicle: saline) 95 % of control; under setting [7], 100 % of control; (dose: 400.0 mg/kg/injection, schedule: Q04DX003 (ip), vehicle: saline) 104 % of control.

For the compound `CC1(C)OC[C@@H](N)[C@@H](O)CO1`, the T/C was 104 % of control under setting [12]; 104 % of control under setting [13]; 118 % of control (dose: 240.0 mg/kg/injection, schedule: Q01DX005 (ip), vehicle: saline).

With `Nc1cn(C2OC(CO)C(O)C2O)c(=O)[nH]c1=O` (stereo not drawn), the T/C runs as follows: (dose: 25.0 mg/kg/injection, schedule: Q01DX009 (ip), vehicle: saline with Tween-80) 95 % of control; under setting [11], 92 % of control.

Take `CC(=O)c1cc2c(cc1C(C)C)CC[C@H]1[C@](C)(C#N)CCC[C@]21C`: the T/C was 86 % of control under setting [14] and 90 % of control (dose: 100.0 mg/kg/injection, schedule: Q01DX009 (ip), vehicle: saline sonified).

For `COc1cc2c(ccc3cc4cccc[n+]4cc32)c(Br)c1OC`, the T/C was 104 % of control (dose: 12.5 mg/kg/injection, schedule: Q01DX009 (ip), vehicle: saline sonified); 118 % of control (dose: 25.0 mg/kg/injection, schedule: Q01DX009 (ip), vehicle: saline sonified); 113 % of control under setting [14].

Consider `c1ccc(C2c3ccccc3C(c3ccccc3)(c3ccccc3)c3ccccc32)cc1`, for which the T/C is 91 % of control under setting [8]; 95 % of control under setting [9]; 94 % of control under setting [10]; 91 % of control (dose: 100.0 mg/kg/injection, schedule: Q01DX009 (ip), vehicle: Klucel (hydroxypropylcellulose) (HPC)).

With `Cc1sc(C)c2c1C[Se]Cc1c(C)sc(C)c1C[Se]C2`, under “dose: 400.0 mg/kg/injection, schedule: Q01DX001 (ip), vehicle: saline with Tween-80”, the T/C is 87 % of control.

Take `O=C(O)c1cnc2cc3c(cc2c1Nc1cccc(Cl)c1)OCO3`: the T/C reads like this: (dose: 60.0 mg/kg/injection, schedule: Q01DX005 (ip), vehicle: Klucel (hydroxypropylcellulose) (HPC)) 93 % of control; (dose: 120.0 mg/kg/injection, schedule: Q01DX005 (ip), vehicle: Klucel (hydroxypropylcellulose) (HPC)) 105 % of control; (dose: 240.0 mg/kg/injection, schedule: Q01DX005 (ip), vehicle: Klucel (hydroxypropylcellulose) (HPC)) 106 % of control.

In the case of `OC(CCl)Cc1ccccc1` (stereo not drawn), the T/C (dose: 25.0 mg/kg/injection, schedule: Q04DX003 (ip), vehicle: saline with Tween-80) is 104 % of control; the T/C (dose: 50.0 mg/kg/injection, schedule: Q04DX003 (ip), vehicle: saline with Tween-80) was 100 % of control; the T/C (dose: 100.0 mg/kg/injection, schedule: Q04DX003 (ip), vehicle: saline with Tween-80) is 100 % of control.

Take `O=C(O)CCC(=O)C1=CSC(=C2SC=CS2)S1`: for the setting “dose: 60.0 mg/kg/injection, schedule: Q01DX005 (ip), vehicle: Klucel + Tween-80”, the T/C is 106 % of control.
